Assays:
[1] = biological target: T1, Steroid hormone receptor ERR1 (Homo sapiens, UniProt P11474); experiment: Binding affinity to ERRalpha ligand binding domain by FRET assay
T1 sequence (P11474 whole entry): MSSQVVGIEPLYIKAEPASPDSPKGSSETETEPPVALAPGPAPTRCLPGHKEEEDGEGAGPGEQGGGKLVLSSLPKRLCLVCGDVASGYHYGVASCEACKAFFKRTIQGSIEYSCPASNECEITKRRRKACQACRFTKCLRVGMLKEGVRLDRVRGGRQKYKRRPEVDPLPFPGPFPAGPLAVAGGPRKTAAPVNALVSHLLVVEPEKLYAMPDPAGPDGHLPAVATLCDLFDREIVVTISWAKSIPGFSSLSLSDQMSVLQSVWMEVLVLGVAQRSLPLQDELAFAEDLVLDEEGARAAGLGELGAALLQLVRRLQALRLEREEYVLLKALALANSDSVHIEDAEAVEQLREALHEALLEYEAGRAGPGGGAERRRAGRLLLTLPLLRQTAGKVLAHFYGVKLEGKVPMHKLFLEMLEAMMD

[2] = biological target: T1, Steroid hormone receptor ERR1; experiment: Binding affinity to wild type ERRalpha ligand binding domain by isothermal titration calorimetry
[3] = Binding affinity to ERRalpha C325S mutant ligand binding domain expressed in sf9 cells by isothermal titration calorimetry

- IC50 [1]: 700 nM
- Kd [2]: 770 nM
SMILES: c1ccc(-n2cc(CNCC3CCCCC3)c3ccccc32)cc1
- Kd [3]: 930 nM

From ChEMBL document CHEMBL1156473, “Crystal structure of human estrogen-related receptor alpha in complex with a synthetic inverse agonist reveals its novel molecular mechanism” (J Biol Chem, 2007)
